What was measured:
4T1 cells = assay: Brensocatib treatment of mice after fat pad injection of 4T1 cells (lung metastasis of breast cancer); format: in vivo, BALB/c mice; conditions: brensocatib 5 mg/kg orally twice daily
Procedure: Female BALB/c and athymic mice aged 6-10 weeks were used in all animal experiments. Orthotropic and intravenous injection were performed as previously described (Zhuang et al., “Differential effects on lung and bone metastasis of breast cancer by Wnt signalling inhibitor DKK1,” Nat. Cell Biol. 19:1274-1285 (2017)). For EdU labeling assays, nude mice were intravenously injected with 2×10^5 cancer cells, followed by intraperitoneal (i.p.) injection of 100 ng/mouse EdU (ThermoFisher, C10640) 24 h before lung harvest. For neutrophil depletion assays, mice received 2 initial i.p. injection (200 μg/mouse) of 1A8 Ly6G antibody (BE0075-1, BioXCel) or rat IgG control (14131, Sigma) every 3 days before cancer cell injection and then maintenance injection twice a week after cancer cell injection. For Sivelestat or DNase I treatment, mice were i.p. injected with Sivelestat (50 mg/kg) or DNase I (5 mg/kg) 2 h before cancer cell injection, followed by daily injection of the reagents for 9 days, and then maintenance shots twice a week. For GSK484 treatment, mice were treated with GSK484 (20 mg/kg, i.p. daily shots for 20 days from day 7, and then maintenance shots every two days) following orthotopic injection of AT3 or 4T07 cells. For IL-1b blocking or IL6R/CCR1 inhibition assays, mice were orthotopically inoculated with 5×10^4 AT3 and treated with i.p. administration of IgG or the IL-1β blocking antibody (100 μg per mouse), or the IL6R blocking antibody (100 μg per mouse) and the CCR1 inhibitor BX471 (20 mg/kg), every two days from day 7 until the mice were sacrificed. For brensocatib treatment, BALB/c mice were orthotopically inoculated with 1×10^5 4T1 cells, and C57/BL6 mice were orthotopically inoculated with 2×10^5 AT3. Vehicle controls (0.5% HPMC, 0.1% Tween 80 in 0.1 M citrate buffer, pH 3) and brensocatib (5 mg/kg) were administered orally twice daily until the mice were sacrificed. Orthotopic tumors were surgically removed at the size of about 1 cm^3. Recombinant human active PR3 treatment (1.5 mg/kg) was administrated intravenously daily after intravenous inoculation of […] LM2 cells. For TSP-1 degradation assays, mice were i.p. injected with GSK484 (20 mg/kg) 2 h before cancer cell injection and followed by daily treatment. Then, the lungs were perfused with 50 ml of pre-chilled PBS through the right ventricle until they were cleared of blood at 72 h post injection of 3×10^6 AT3 or 4T07 cells. BLI was acquired with NightOWL II LB983 Imaging System (Bert-hold) and IVIS Spectrum CT (PerkinElmer). All animal studies were conducted according to the guidelines for the care and use of laboratory animals and were approved by the Institutional Animal Care and Use Committee of Shanghai Institute of Nutrition and Health.
The use of CTSC inhibitors to treat lung metastasis of breast cancer is investigated. Brensocatib (also known as AZD7986 or INS1007) is a CTSC-specific inhibitor used for treating Non-Cystic Fibrosis Bronchiectasis, and has currently entered Phase II clinical trials. See Doyle et aL, “Discovery of second generation reversible covalent DPP1 inhibitors leading to an oxazepane amidoacetonitrile based clinical candidate (AZD7986),” J. Med. Chem. 59:9457-9472 (2016). Brensocatib is administered to mice 7 days after the introduction of 4T1 cells via fat pad injection. A vehicle control group is also provided. Graphical data for change in tumor volume over time, numbers of pulmonary nodules formed, changes in mouse weight over time, and mouse survival rates, as well as the statistical diagram of the number of NETs in the lesions, are shown in FIGS. 10A-E. CTSC inhibitor brensocatib also suppresses the NETs-promoted tumor sphere formation of 4T1 cells (FIG. 10F).

CTSC = biological target: T1, CTSC (Homo sapiens, UniProt P53634); assay: CTSC protein expression in metastatic tumor cells; format: cell-based; conditions: a number of metastatic tumor cell types treated with brensocatib; FIGS. 11A-C
T1 construct: The CTSC protein secretion level in tumor cells with different capabilities of metastasis to various target organs; endogenous in cells; host or cells: metastatic breast cancer cells (MDA-MB-231, SP16, SP16L; bone-metastatic lines) and bone-metastatic lung cancer cells
T1 sequence (P53634 25-463): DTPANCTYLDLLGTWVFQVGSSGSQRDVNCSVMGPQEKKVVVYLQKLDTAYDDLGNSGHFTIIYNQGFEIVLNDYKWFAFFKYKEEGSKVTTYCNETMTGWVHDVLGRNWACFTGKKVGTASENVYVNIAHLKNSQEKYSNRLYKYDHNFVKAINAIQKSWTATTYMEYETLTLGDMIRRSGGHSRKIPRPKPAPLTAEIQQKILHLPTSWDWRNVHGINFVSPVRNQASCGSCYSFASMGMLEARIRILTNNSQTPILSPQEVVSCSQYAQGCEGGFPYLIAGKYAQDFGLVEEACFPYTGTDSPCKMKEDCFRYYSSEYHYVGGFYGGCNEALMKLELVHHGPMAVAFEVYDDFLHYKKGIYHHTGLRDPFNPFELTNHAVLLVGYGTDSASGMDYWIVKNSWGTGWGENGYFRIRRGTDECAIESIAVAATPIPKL
Procedure: Cultured cells were collected by scraper or trypsinized and then lysed with lysis buffer (50 mM Tris-HCl, 150 mM NaCl, 1% NP-40 detergent, 0.5% sodium deoxycholate, 0.1% SDS with phosphatase and protease inhibitors), and dispersed tissue were homogenized in RIPA buffer on ice for 15 min, followed by centrifugation at 17,000 g for 15 min. The protein concentration was measured with a BCA Protein Assay Kit. Proteins of 10 μg, 80 μg, 30 μg were loaded for membrane proteins, IL-1β processing, p65 phosphorylation and the other assays, respectively, and separated on 8-12% SDS-polyacrylamide gel. For cancer cell conditioned medium (CM) collection, cells were grown to ~80% confluence in 10 cm culture dishes. After three times washing with serum-free medium at 37° C., the cells were incubated in serum-free medium at 37° C. for 24 h. The CM were collected, centrifuged at 2,000 g for 10 min, filtrated by 0.22 μm filters, stored at −80° C. until used. The secreted proteins in CM were collected by TCA precipitation. Briefly, 25% v/v TCA was added into 1 ml CM with phosphatase and protease inhibitors, incubated overnight at 4° C., and then centrifuged at 20,000 g for 60 min, after which the supernatant was discarded and the pellet was washed twice with 1 ml pre-chilled acetone, centrifuged again at 20,000 g for 5 min at 4° C. […]

[1] = test system: pancreatic cancer cells KP4; assay: NET-promoted tumor sphere formation, pancreatic cancer; format: cell-based; conditions: neutrophil medium, CM with or without brensocatib, FIG. 11O
Procedure: To test the therapeutic effects of brensocatib in different cancer types in vitro, the ability of brensocatib to inhibit NET-promoted tumor sphere formation is investigated. The neutrophils are cultured with conditioned medium from tumor cells of colon cancer, liver cancer, lung cancer, gastric cancer and pancreatic cancer with or without brensocatib treatment to activate NETosis, and then the neutrophil medium was used in tumor sphere formation of these cancer cells to analyze the effect of neutrophil medium to facilitate tumor cell growth. The amount of tumorsphere in each sample is then determined by imaging.

[2] = test system: pancreatic cancer cells KP4; assay: Mouse xenograft, pancreatic tumor cells by spleen injection (liver metastasis); format: in vivo; conditions: nude mice, FIG. 12C
Procedure: A series of mouse xenograft studies are conducted by injecting liver and pancreatic tumor cells into nude mice by spleen injection. Then the mice are treated by brensocatib, and the growth of the tumors in liver is observed.

[3] = test system: SCP28 cells overexpressing CTSC; assay: Mice injected with CTSC-overexpressed SCP28 cells, treated with Sivelestat or DNase I; format: in vivo
Procedure: Female BALB/c and athymic mice aged 6-10 weeks were used in all animal experiments. Orthotropic and intravenous injection were performed as previously described (Zhuang et al., “Differential effects on lung and bone metastasis of breast cancer by Wnt signalling inhibitor DKK1,” Nat. Cell Biol. 19:1274-1285 (2017)). For EdU labeling assays, nude mice were intravenously injected with 2×10^5 cancer cells, followed by intraperitoneal (i.p.) injection of 100 ng/mouse EdU (ThermoFisher, C10640) 24 h before lung harvest. For neutrophil depletion assays, mice received 2 initial i.p. injection (200 μg/mouse) of 1A8 Ly6G antibody (BE0075-1, BioXCel) or rat IgG control (14131, Sigma) every 3 days before cancer cell injection and then maintenance injection twice a week after cancer cell injection. For Sivelestat or DNase I treatment, mice were i.p. injected with Sivelestat (50 mg/kg) or DNase I (5 mg/kg) 2 h before cancer cell injection, followed by daily injection of the reagents for 9 days, and then maintenance shots twice a week. For GSK484 treatment, mice were treated with GSK484 (20 mg/kg, i.p. daily shots for 20 days from day 7, and then maintenance shots every two days) following orthotopic injection of AT3 or 4T07 cells. For IL-1b blocking or IL6R/CCR1 inhibition assays, mice were orthotopically inoculated with 5×10^4 AT3 and treated with i.p. administration of IgG or the IL-1β blocking antibody (100 μg per mouse), or the IL6R blocking antibody (100 μg per mouse) and the CCR1 inhibitor BX471 (20 mg/kg), every two days from day 7 until the mice were sacrificed. For brensocatib treatment, BALB/c mice were orthotopically inoculated with 1×10^5 4T1 cells, and C57/BL6 mice were orthotopically inoculated with 2×10^5 AT3. […]
The number of myeloperoxidase-positive neutrophils around GFP^+ cancer cells in the lungs of mice 72 h after injection with CTSC-overexpressed SCP28 is quantified by immunostaining of the lung tissue. […]

With `Cn1c(=O)oc2ccc(-c3ccc(C[C@@H](C#N)NC(=O)[C@@H]4CNCCCO4)cc3)cc21` [brensocatib, (2S)—N-{(1S)-1-cyano-2-[4-(3-methyl-2-oxo-2,3-dihydro-1,3-benzoxazol-5-yl)phenyl]ethyl}-1,4-oxazepane-2-carboxamide] as the molecule, how does the “in situ tumor volume vs. time (primary tumor growth)” value (4T1 cells; from 7 days after 4T1 fat pad injection, vs untreated control, FIG. 10A) read?
Its value is “does not affect primary tumor growth”.

And the “formation of NETs in the lung metastatic lesions” value (4T1 cells; FIG. 10E)?
Its value is “significantly inhibits”.

And the pulmonary nodule formation (4T1 cells; vs untreated mice, FIG. 10B)?
The pulmonary nodule formation was “significantly reduced”.

And the body weight decrease (4T1 cells; vs untreated mice, FIG. 10C)?
Its body weight decrease is “lower than untreated mice”.

And the survival rate (4T1 cells; vs untreated mice, FIG. 10D)?
Its survival rate is “significantly improves”.

And the “neutrophil infiltration in the pulmonary lesions” value (4T1 cells; vs untreated mice, FIG. 10E)?
Its value is “reduced relative to untreated mice”.

What about the CTSC protein expression (CTSC) of the same molecule?
The CTSC protein expression was “significantly reduced”.

And the “NET-promoted tumor sphere formation (in vitro tumor growth)” value [1]?
The value was “inhibit in vitro tumor growth”.

And the “metastatic growth of pancreatic cancer cells KP4 in liver” value [2]?
The value was “significantly inhibits”.

Which “neutrophil aggregation around cancer cells in the lungs” value ([3]; 7 weeks post-injection, FIG. 7G) does the source give for `CC(C)(C)C(=O)Oc1ccc(S(=O)(=O)Nc2ccccc2C(=O)NCC(=O)O)cc1` [Silvelestat] here?
Its value is “persist through 7 weeks post-injection”.

What about the “neutrophil aggregation around cancer cells in the lungs” value ([3]; 72 h after injection, Sivelestat 50 mg/kg i.p., FIG. 7F) of the same molecule?
Its value is “decreases”.

What about the “lung metastasis (BLI)” value ([3]; up to 8 weeks post-injection, Sivelestat 50 mg/kg or DNase I 5 mg/kg i.p., FIG. 8G) of the same molecule?
The value was “suppressed”.

Source: patent US12697328B2, “Methods for treating metastasis with cathepsin C inhibitors” (Shanghai Institute of Nutrition and Health, Chinese Academy …, priority 2020, dated 2026)
